Assay results from publication PMC4303209, “A novel phosphatidylinositol 3-kinase (PI3K) inhibitor directs a potent FOXO-dependent, p53-independent cell cycle arrest phenotype characterized by the differential induction of a subset of FOXO-regulated genes” (Breast Cancer Research : BCR, 2014).

Test system: MCF-7 breast cancer cells
Assay: Microarray gene expression analysis (Agilent whole human genome 4 x 44K; compound vs DMSO, LIMMA log2 fold change)
Type: cell-based
Conditions: Apoptosis genes

## Cn1ncc2c(N3CCOCC3)nc(-c3cccc(O)c3)nc21 [ETP-45658]
Gene 8997
  KALRN log2FC: 0.091
Gene 9021
  SOCS3 log2FC: -1.264
Gene 9024
  BRSK2 log2FC: -0.150
Gene 9040
  UBE2M log2FC: -0.487
Gene 9092
  SART1 log2FC: -0.304
Gene 9093
  DNAJA3 log2FC: 0.296
Gene 9135
  RABEP1 log2FC: 0.616
Gene 9181
  ARHGEF2 log2FC: -0.734
Gene 9191
  DEDD log2FC: -0.182
Gene 9212
  AURKB log2FC: -0.212
Gene 9214
  FAIM3 log2FC: -0.667
Gene 9231
  DLG5 log2FC: -0.344
Gene 9240
  PNMA1 log2FC: 0.386
Gene 9241
  NOG log2FC: -0.420
Gene 9244
  CRLF1 log2FC: -0.116
Gene 9262
  STK17B log2FC: 0.460
Gene 9263
  STK17A log2FC: 0.274
Gene 9274
  BCL7C log2FC: -0.273
Gene 9344
  TAOK2 log2FC: -0.736
Gene 9353
  SLIT2 log2FC: 0.124
Gene 9368
  SLC9A3R1 log2FC: -0.593
Gene 9414
  TJP2 log2FC: 0.142
Gene 9423
  NTN1 log2FC: -0.272
Gene 9445
  ITM2B log2FC: 0.364
Gene 9447
  AIM2 log2FC: -0.111
Gene 9450
  LY86 log2FC: -0.441
Gene 9451
  EIF2AK3 log2FC: 0.631
Gene 9464
  HAND2 log2FC: -0.617
Gene 9474
  ATG5 log2FC: -0.569
Gene 9475
  ROCK2 log2FC: 0.291
Gene 9479
  MAPK8IP1 log2FC: -0.208
Gene 9481
  SLC25A27 log2FC: 0.161
Gene 9491
  PSMF1 log2FC: -0.383
Gene 9516
  LITAF log2FC: -0.463
Gene 9521
  EEF1E1 log2FC: 0.192
Gene 9530
  BAG4 log2FC: 0.066
Gene 9531
  BAG3 log2FC: -0.998
Gene 9538
  EI24 log2FC: -0.507
Gene 9564
  BCAR1 log2FC: -0.597
Gene 9577
  BRE log2FC: -0.322
Gene 9616
  RNF7 log2FC: -0.220
Gene 9618
  TRAF4 log2FC: -0.910
Gene 9625
  AATK log2FC: 1.732
Gene 9641
  IKBKE log2FC: -0.592
Gene 9647
  PPM1F log2FC: -0.513
Gene 9693
  RAPGEF2 log2FC: 0.863
Gene 9700
  ESPL1 log2FC: 0.453
Gene 9709
  HERPUD1 log2FC: 0.217
Gene 9748
  SLK log2FC: 0.938
Gene 9774
  BCLAF1 log2FC: 0.733
Gene 9812
  KIAA0141 log2FC: 0.422
Gene 9821
  RB1CC1 log2FC: 1.457
Gene 9826
  ARHGEF11 log2FC: -0.194
Gene 9828
  ARHGEF17 log2FC: 0.130
Gene 9833
  MELK log2FC: 0.433
Gene 9861
  PSMD6 log2FC: 0.300
Gene 9915
  ARNT2 log2FC: -0.108
Gene 9984
  THOC1 log2FC: 0.606
Gene 9994
  CASP8AP2 log2FC: 0.813
Gene 10011
  SRA1 log2FC: -0.924
Gene 10015
  PDCD6IP log2FC: 0.516
Gene 10016
  PDCD6 log2FC: -0.540
Gene 10018
  BCL2L11 log2FC: 0.145
Gene 10038
  PARP2 log2FC: 0.419
Gene 10049
  DNAJB6 log2FC: 0.317
Gene 10059
  DNM1L log2FC: 0.674
Gene 10081
  PDCD7 log2FC: 0.102
Gene 10105
  PPIF log2FC: -1.006
Gene 10116
  FEM1B log2FC: -0.258
Gene 10134
  BCAP31 log2FC: -0.393
Gene 10181
  RBM5 log2FC: 0.716
Gene 10193
  RNF41 log2FC: 0.235
Gene 10197
  PSME3 log2FC: -1.314
Gene 10202
  DHRS2 log2FC: 0.711
Gene 10210
  TOPORS log2FC: 0.700
Gene 10213
  PSMD14 log2FC: 0.447
Gene 10253
  SPRY2 log2FC: -1.064
Gene 10276
  NET1 log2FC: 0.571
Gene 10277
  UBE4B log2FC: -0.652
Gene 10284
  SAP18 log2FC: 0.262
Gene 10293
  TRAIP log2FC: 0.639
Gene 10296
  MAEA log2FC: -0.219
Gene 10298
  PAK4 log2FC: -0.601
Gene 10313
  RTN3 log2FC: -0.201
Gene 10370
  CITED2 log2FC: 2.261
Gene 10371
  SEMA3A log2FC: 0.054
Gene 10395
  DLC1 log2FC: -0.918
Gene 10399
  GNB2L1 log2FC: -0.052
Gene 10413
  YAP1 log2FC: 0.283
Gene 10428
  CFDP1 log2FC: 0.559
Gene 10438
  C1D log2FC: 0.287
Gene 10449
  ACAA2 log2FC: 0.222
Gene 10451
  VAV3 log2FC: 2.242
Gene 10494
  STK25 log2FC: 0.126
Gene 10507
  SEMA4D log2FC: 0.201
Gene 10514
  MYBBP1A log2FC: -0.538
Gene 10519
  CIB1 log2FC: -0.090
Gene 10533
  ATG7 log2FC: -0.393
Gene 10553
  HTATIP2 log2FC: 0.241
Gene 10595
  ERN2 log2FC: -0.829
Gene 10616
  RBCK1 log2FC: -0.413
Gene 10617
  STAMBP log2FC: 0.425
Gene 10625
  IVNS1ABP log2FC: 0.124
Gene 10628
  TXNIP log2FC: 2.131
Gene 10670
  RRAGA log2FC: -0.331
Gene 10687
  PNMA2 log2FC: -0.069
Gene 10752
  CHL1 log2FC: 0.057
Gene 10763
  NES log2FC: -0.458
Gene 10769
  PLK2 log2FC: -0.887
Gene 10771
  ZMYND11 log2FC: 0.411
Gene 10783
  NEK6 log2FC: -0.620
Gene 10787
  NCKAP1 log2FC: 0.702
Gene 10795
  ZNF268 log2FC: 0.304
Gene 10848
  PPP1R13L log2FC: 0.207
Gene 10859
  LILRB1 log2FC: -0.164
Gene 10884
  MRPS30 log2FC: 0.391
Gene 10887
  PROKR1 log2FC: -0.235
Gene 10891
  PPARGC1A log2FC: 0.117
Gene 10892
  MALT1 log2FC: -0.183
Gene 10899
  JTB log2FC: -0.124
Gene 10904
  BLCAP log2FC: -0.662
Gene 10913
  EDAR log2FC: -0.358
Gene 10921
  RNPS1 log2FC: -0.273
Gene 10922
  FASTK log2FC: -0.423
Gene 10935
  PRDX3 log2FC: 0.630
Gene 10962
  MLLT11 log2FC: -0.777
Gene 10971
  YWHAQ log2FC: 0.450
Gene 11009
  IL24 log2FC: -0.211
Gene 11035
  RIPK3 log2FC: 0.042
Gene 11040
  PIM2 log2FC: -0.863
Gene 11083
  DIDO1 log2FC: -0.773
Gene 11124
  FAF1 log2FC: 0.204
Gene 11132
  CAPN10 log2FC: -0.095
Gene 11188
  NISCH log2FC: 0.948
Gene 11200
  CHEK2 log2FC: 0.312
Gene 11214
  AKAP13 log2FC: -0.384
Gene 11218
  DDX20 log2FC: 0.500
Gene 11235
  PDCD10 log2FC: 0.541
Gene 11337
  GABARAP log2FC: 0.197
Gene 22809
  ATF5 log2FC: -1.275
Gene 22822
  PHLDA1 log2FC: -2.095
Gene 22900
  CARD8 log2FC: 0.190
Gene 22938
  SNW1 log2FC: 0.686
Gene 22954
  TRIM32 log2FC: -0.374
Gene 22985
  ACIN1 log2FC: -0.352
Gene 23087
  TRIM35 log2FC: 0.473
Gene 23095
  KIF1B log2FC: 0.166
Gene 23198
  PSME4 log2FC: 0.174
Gene 23229
  ARHGEF9 log2FC: 0.258
Gene 23241
  PACS2 log2FC: -0.307
Gene 23263
  MCF2L log2FC: 0.118
Gene 23321
  TRIM2 log2FC: 1.078
Gene 23365
  ARHGEF12 log2FC: 0.173
Gene 23368
  PPP1R13B log2FC: 0.098
Gene 23385
  NCSTN log2FC: 0.216
Gene 23394
  ADNP log2FC: 0.193
Gene 23411
  SIRT1 log2FC: 1.263
